Source: ChEMBL document CHEMBL1141795, “Aspirochlorine class compounds from Aspergillus flavus inhibit azole-resistant Candida albicans” (J Nat Prod, 2005)

Columns and labels:
CCRF-CEM = test: Cytotoxicity against human CEM cells after 96 hrs; type: functional, cell-based
Candida albicans = test: Antifungal activity against azole-resistant Candida albicans 99-788; type: functional, organism-based
in vitro = settings: human
Description: Therapeutic index, IC50 for human CEM cells to IC 50 for azole-resistant Candida albicans 99-788

[1] = CEM cells (versus azole-resistant Candida albicans 99-788)

Compound | IC50 (CCRF-CEM) | IC50 (Candida albicans) | selectivity ratio (in vitro; ccrf-cem) | selectivity ratio (in vitro; [1])
CC(C)C[C@@H]1C(=O)N[C@@H](Cc2c[nH]c3ccccc23)C(=O)N1C | > 31 µM | > 31 µM |  | 
C[C@@H]1[C@H](O)[C@@H](C)/C=C/C=C/C=C/C=C/C=C/C=C/C=C/[C@H](O[C@@H]2O[C@H](C)[C@@H](O)[C@H](N)[C@@H]2O)C[C@@H]2O[C@](O)(C[C@@H](O)C[C@@H](O)[C@H](O)CC[C@@H](O)C[C@@H](O)CC(=O)O[C@H]1C)C[C@H](O)[C@H]2C(=O)O [AMPHOTERICIN B] | 160 µM | 0.16 µM | 1000 | 
CON1C(=O)C2NC(=O)[C@@]13Oc1cc(O)c(Cl)cc1[C@@H]3SSSS2 [TETRATHIOASPIROCHLORINE] | 4.2 µM | 0.083 µM |  | 50
CN1C(=O)[C@]23CC4=CC=C[C@H](O)[C@H]4N2C(=O)[C@@]1(CO)SS3 [GLIOTOXIN] | 0.15 µM | 3.1 µM |  | 
COC1=CC(=O)C[C@@H](C)[C@]12Oc1c(Cl)c(OC)cc(OC)c1C2=O [GRISEOFULVIN] | 10 µM | > 28 µM |  | 
CON1C(=O)[C@H]2NC(=O)[C@]13Oc1cc(O)c(Cl)cc1[C@@H]3SS2 [ASPIROCHLORINE] | 0.58 µM | 0.028 µM |  | 20
